Consider one compound from patent publication US20230382915A1, “GCN2 AND PERK KINASE INHIBITORS AND METHODS OF USE THEREOF” (Deciphera Pharmaceuticals, LLC, priority 2021, published 2023).

For assay [1], the system named is LoVo colorectal xenograft. As to the kind of experiment: LoVo xenograft efficacy model. The assay is classed as in vivo, mice. As to conditions: 5 mg/kg BID, 22 days of dosing. The protocol: The LoVo xenograft model was performed in compliance with all the laws, regulations and guidelines of the National Institutes of Health (NIH) and with the approval of the Animal Care and Use Committee of Crown Bioscience (Taicang, China), an AAALAC accredited facility. Food and water were provided ad libitum. […] Female Balb/c nude mice (5-9 weeks old) were inoculated subcutaneously just below the right high axilla with ten million cells in Dulbecco's Phosphate Buffered Saline, using a 27-gauge needle and syringe. When tumor burdens reached 100 mm 3 on average on day 6, mice were randomly assigned into groups such that the mean tumor burden for all groups was within 10% of the overall mean tumor burden for the study population. Groups were treated on days 6-27 as follows: vehicle control (dosed orally) (n=9); Compound 2 dosed orally at 5 mg/kg BID (n=9); Compound 2 dosed orally at 1 mg/kg BID. Tumor volume and body weights were measured three time per week. Tumor burden (mg) was estimated from caliper measurements by the formula: tumor burden (mg=mm 3)=(length×width 2)/2.

Assay [2] deals with ATF4 levels in HT-1080 fibrosarcoma xenograft. As to the kind of experiment: HT-1080 fibrosarcoma xenograft PK/PD model. The assay is classed as in vivo, mice. Here is the method: The HT-1080 xenograft model was performed in compliance with all the laws, regulations and guidelines of the National Institutes of Health (NIH) and with the approval of the Animal Care and Use Committee of Labcorp (Ann Arbor, MI), an AAALAC accredited facility. Food and water were provided ad libitum. […] Female nude mice (6-7 weeks old) were inoculated subcutaneously just below the right high axilla with two million cells in Dulbecco's Phosphate Buffered Saline, using a 27-gauge needle and syringe. When tumor burdens reached 150 mm 3 on average on day 6, mice were randomly assigned into groups such that the mean tumor burden for all groups was within 10% of the overall mean tumor burden for the study population. Groups were treated on days 6-11 as follows: vehicle control (dosed orally) (n=9); Compound 2 dosed orally at 10 mg/kg BID (n=9); Compound 2 dosed orally at 5 mg/kg BID; Compound 2 dosed orally at 1 mg/kg BID (n=9) prior to sample harvest at 2, 6 and 10 h post dose on day 11. Blood samples were collected in K2EDTA tubes and processed into plasma, snap frozen in liquid nitrogen then stored at −80° C. Plasma samples were subjected to pharmacokinetic analysis using liquid chromatography coupled with tandem mass spectrometry analysis (Cayman Chemical, Ann Arbor, MI). Tumors were harvested and powdered over liquid nitrogen in covaris bags and stored at −80° C. For tissue sample processing roughly 30 mg of tumor tissue was lysed in MPER lysis buffer (Thermo Fisher Scientific, Waltham, MA) supplemented with 3× Halt protease inhibitor, 3×Halt phosphatase inhibitor, 3× Sigma phosphatase inhibitor cocktail 2 and 3×EDTA on ice then homogenized using Bead Ruptor 96 (Omni, Kennesaw, GA). […] Protein concentrations were determined using BCA protein assay kit (Thermo Fisher Scientific, Waltham, MA). […] Samples were resolved using SDS-PAGE then analyzed using Western blot to quantify ATF4 and beta-Actin (Cell Signaling Technology, Danvers, MA). […] Data was analyzed using GraphPad Prism software (GraphPad, San Diego, CA) to calculate % inhibition.

In assay [3] the test system is RPMI8226 Multiple Myeloma cells. Put plainly: Cell proliferation, combination with standard of care, RPMI8226. The class given is cell-based. As to conditions: Homo sapiens, RPMI-8226; with 333 nM dexamethasone, 96 h, FIG. 6A; read-out: inhibition of cell proliferation IC50, combination treatment. Here is the method: (§1) H929, RPMI8226, GA-10 and DoHH-2 cells (catalog #CRL-9068) were obtained from the American Type Culture Collection (ATTC, Manassas, VA). H929 Cells were maintained in RPMI-1640 medium supplemented with 20% heat-inactivated fetal bovine serum (catalog #A3840002, ThermoFisher Scientific, Waltham, MA), 1% Penicillin/Streptomycin/L-Glutamine (catalog #10378016, ThermoFisher Scientific, Waltham, MA), and 0.05 mM 2-mercaptoethanol (catalog #21985-023, ThermoFisher Scientific, Waltham, MA). […]
(§2) For cell proliferation assay appropriate number of cells (Forty thousand cells for H929. Twenty thousand cells for RPMI8226 and GA-10. Eight thousand cells for DoHH-2) were seeded per well in 200 μL in respective medium were dispensed into a 96-well black clear bottom plate. […] Plates were read on a Synergy2 or equivalent reader (Biotek, Winooski VT) using an excitation of 540 nm and an emission of 600 nm. At the end of the incubation of DoHH-2, cell viability was determined using CellTiter-Glo® assay (Promega, Madison, WI). Luminescence was measured using EnVision MultiLabel Reader (PerkinElmer, Waltham, MA). Data was analyzed using GraphPad Prism software (GraphPad, San Diego, CA) to calculate IC50 values.

The test system of assay [4] is Follicular lymphoma cells. As to the kind of experiment: Cell proliferation, combination with standard of care, follicular lymphoma. The assay is classed as cell-based. As to conditions: with 41 nM ibrutinib, 96 h, FIG. 6D; read-out: inhibition of cell proliferation IC50, combination treatment. The protocol:
as §1, §2

With `Cn1cc(-c2cccc(NS(=O)(=O)c3cc(Cl)cc(CO)c3Cl)c2F)c2c(N)ncnc21` [Example 2, N-(3-(4-amino-7-methyl-7H-pyrrolo[2,3-d]pyrimidin-5-yl)-2-fluorophenyl)-2,5-dichloro-3-(hydroxymethyl)benzenesulfonamide], the “mean tumor growth inhibition” value in assay [1] stood at 69%. Moreover, the “upregulation of ATF4 levels compared to vehicle control” value in assay [2] (1 mg/kg BID orally) is 3 fold; in assay [2] (5 mg/kg BID orally) it was 3.5 fold; in assay [2] (10 mg/kg BID orally), 4.5 fold. Also, the IC50 in assay [3] is 7 nM; in assay [4], 4 nM.
